Results taken from article PMC12118597 (Science Advances, 2025).
Where “and” joins values, the source holds several entries; their conditions need not be identical. Identical values can stand only once. Like-named read-outs stand apart in the source and are kept apart here.

What was measured:
[1] = target: T1, SARS-CoV-2 NSP3 macrodomain (Mac1) (Severe acute respiratory syndrome coronavirus 2, UniProt P0DTD1); format: binding; conditions: for 1-BDC: PanDDA background density correction factor; for Total number of conformations: ligand conformations modeled in the crystal structure; for 2*(1-BDC) (%): occupancy estimate from PanDDA; for Refined ligand occupancy (%): refined crystallographic occupancy
Microsomal stability = format: in vitro ADME, mouse; conditions: for T1/2 (min), mean: Mouse microsome stability assay; for CLint (mouse): intrinsic clearance from t1/2
Description: The assay was carried out in 96-well plates at 37°C. Reaction mixtures (25 μl) contained a final concentration of 1 μM compound, liver microsome protein (0.5 mg/ml), and 1 mM NADPH (reduced form of nicotinamide adenine dinucleotide phosphate) and/or 1 mM uridine diphosphate glucuronic acid (with alamethicin) in 100 mM potassium phosphate (pH 7.4) with 3 mM MgCl2. After 0, 15, 30, and 60 min, 150 μl of quench solution (100% acetonitrile with 0.1% formic acid) with an internal standard was transferred to each well. Reactions containing the same components, except NADPH, were prepared as the negative control.
The extent of metabolism was calculated as the disappearance of compounds compared to the 0-min time incubation.

[2] = target: T1, SARS-CoV-2 NSP3 macrodomain (Mac1); experiment: biochemical; format: binding
human macrodomain Targ1 = target: T2, human macrodomain Targ1 (Homo sapiens, UniProt Q9Y530); experiment: HTRF peptide displacement assay, human Targ1; format: binding
T2 construct: Targ1_HTRF; HTRF assay; pET22b(+); His6, TEV; 1-153; made in house
T2 sequence (Q9Y530 with tags, fused parts or gaps): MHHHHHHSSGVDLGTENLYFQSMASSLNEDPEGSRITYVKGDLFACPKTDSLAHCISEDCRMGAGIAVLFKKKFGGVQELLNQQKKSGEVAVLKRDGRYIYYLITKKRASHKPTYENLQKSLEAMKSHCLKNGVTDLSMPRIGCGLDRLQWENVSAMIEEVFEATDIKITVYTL

[3] = target: T3, human macrodomain MacroD2 (Homo sapiens, UniProt A1Z1Q3); experiment: HTRF peptide displacement assay, human MacroD2; format: binding
T3 construct: MacroD2_HTRF; HTRF assay; pET22b(+); His6, TEV, Avi; 2-425; made in house
T3 sequence (A1Z1Q3 with tags, fused parts or gaps): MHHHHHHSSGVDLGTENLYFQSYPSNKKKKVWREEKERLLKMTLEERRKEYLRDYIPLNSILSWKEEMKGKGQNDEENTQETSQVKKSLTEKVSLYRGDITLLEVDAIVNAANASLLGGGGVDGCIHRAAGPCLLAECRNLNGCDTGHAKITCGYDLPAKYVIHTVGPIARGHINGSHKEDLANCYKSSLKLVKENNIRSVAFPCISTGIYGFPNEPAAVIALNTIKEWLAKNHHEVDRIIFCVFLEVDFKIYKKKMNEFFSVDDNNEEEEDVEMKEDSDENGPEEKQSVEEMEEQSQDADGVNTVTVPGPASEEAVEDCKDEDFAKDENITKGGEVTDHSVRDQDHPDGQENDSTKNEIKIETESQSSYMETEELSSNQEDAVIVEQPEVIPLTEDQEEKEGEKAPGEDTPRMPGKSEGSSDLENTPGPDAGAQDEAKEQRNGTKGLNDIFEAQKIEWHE

Caco-2 cells = test system: Caco-2 cells
Description: Caco-2 cell plates were obtained commercially and were maintained for 21 days at 37°C with 5% CO2. Cells were washed with Hank’s balanced salt solution with 5 mM Hepes for 30 min before starting the experiment. Test compound solutions are prepared by diluting DMSO stock into Hank’s balanced salt solution buffer, resulting in a final DMSO concentration of 0.1%. Before the assay, cell monolayer integrity was verified by […] electrical resistance to ensure that wells have resistance above the acceptance cutoff (1 kilohm). Transport experiments were initiated by adding test compounds to the apical (75 μl) or basal (250 μl) side. Transport plates were incubated at 37°C in a humidified incubator with 5% CO2. Samples were taken from the donor and acceptor compartments after 1 hour and analyzed by liquid chromatography–tandem mass spectrometry (LC-MS/MS) using an AB Sciex API 4000 instrument coupled to a Shimadzu LC-20 AD LC Pump system. Samples were separated using a Waters Atlantis T3 dC18 reverse phase HPLC column (20 mm by 2.1 mm) at a flow rate of 0.5 ml/min. The mobile phase consisted of 0.1% formic acid in acetonitrile (solvent A) and 0.1% formic acid in water (solvent B).
Apparent permeability (Papp) values were calculated using the following equation Papp=(dQ/dt)/A/C0 where dQ/dt is the initial rate of compound transport across the cell monolayer, A is the surface area of the filter membrane, and C0 is the initial concentration of the test compound, calculated for each direction using a four-point calibration curve by LC-MS/MS.
The net flux ratio between the two directional transports was calculated by the following equation Ratio=PappB−A/PappA−B where PappB-A and PappA-B represent the apparent permeability of compounds from the basal-to-apical and apical-to-basal sides of the cellular monolayer, respectively. Recovery was calculated on the basis of the compound concentration at the end of the experiment compared to that at the beginning of the experiment, adjusted for volumes.

Kinetic solubility = conditions: for Kinetic solubility (uM), mean: DMSO concentration 5%; for Mean solubility: phosphate-buffered saline pH 7.4, triplicate
Mac1 = conditions: cited from earlier work
[4] = crystal soak 10 mM, P43 crystal form
[5] = HTRF binding curve, SARS-CoV-2 Mac1
[6] = SARS CoV-2 macrodomain HTRF assay, dose-response
[7] = Caco-2 permeability assay, compound concentration 5
[8] = Caco-2, compound concentration 5

Structure (SMILES)	Occupancy difference (refined_occupancy - 2*(1-BDC)) [1]	1-BDC [1]	PanDDA run, overall: Hit [1, 4]	PanDDA run, DMSO background map: 1-BDC ([1]; crystal soak 10 mM)	PanDDA run, DMSO background map: Hit ([1]; crystal soak 10 mM)	Total number of conformations [1]	2*(1-BDC) (%) [1] [%]	Refined ligand occupancy (%) [1] [%]	T1/2 (min), mean (Microsomal stability) [min]	CLint (mouse) (Microsomal stability) [µl/min/mg protein]	Hill slope [2, 5]	Hill slope [2, 6]	showed binding to the human macrodomain Targ1 (human macrodomain Targ1; result in words)	showed binding to the human macrodomain MacroD2 ([3]; result in words)	Recover Rate (%) (Caco-2 cells; [7])	Kinetic solubility (uM), mean (Kinetic solubility) [µM]	Mean solubility (Kinetic solubility) [µM]	Recover Rate (%) (Caco-2 cells; [8])	further results
CC(C)(O)[C@H]1CCCN1c1ncnc2[nH]ccc12 [AVI-607, 2-[(2R)-1-{7H-pyrrolo[2,3-d]pyrimidin-4-yl}pyrrolidin-2-yl]propan-2-ol]	5	0.44	TRUE	0.42 and 0.44	TRUE	1	88	93	19	73	1.5	1.5	none	none	93	518	518	–	PanDDA run, overall: Modeling comment ([1]; crystal soak 10 mM): High occupancy, use manual refinement; X-ray crystal structure ([1]; ligand-bound crystal structure obtained (TRUE)): TRUE; Binding site ([1]; site occupied in X-ray crystal structure): Adenosine; inhibition at 200 µM ([2]; SARS CoV-2 macrodomain HTRF assay, single dose concentration 200 μM, read-out: Average % competition): 100%; inhibition at 200 µM ([2]; compound at 200 μM, mean of three to four technical replicates, read-out: % competition at 200 μM (preliminary HTRF screen)): 100%
CC(c1ccccc1)C(CO)Nc1ncnc2[nH]ccc12 (stereo not shown) [AVI-3669]	0	0.14	TRUE	0.14	TRUE	1	28	28	8.3	166.4	1.2	1.2	none	none	–	529	529	93	X-ray crystal structure ([1]; TRUE = crystal structure with ligand obtained): TRUE; PanDDA run, overall: Modeled [1, 4]: TRUE; Binding site ([1]; site of ligand in X-ray crystal structure): Adenosine
C[C@H]1CCCN(c2ncnc3[nH]ccc23)[C@H]1CO [AVI-3716]	–	–	–	–	–	–	–	–	–	44.4	–	–	none	none	104	523	523	–	Mouse microsome T1/2 (Microsomal stability; 1 μM compound, 0.5 mg/ml microsome protein): 31.2 min
Cc1c[nH]c2ncnc(NCC3(O)CCCCC3)c12 [AVI-3761, 1-(((5-methyl-7H-pyrrolo[2,3-d]pyrimidin-4-yl)amino)methyl)cyclohexan-1-ol]	–	–	–	–	–	–	–	–	7.49	185	–	–	–	–	–	–	–	86	showed binding to the human macrodomain Targ1 (human macrodomain Targ1): none; showed binding to the human macrodomain MacroD2 [3]: none
CCNC(=O)Nc1cccc2c1[nH]c1ncnc(NN3C(=O)CCC3(C)C)c12 [AVI-4206]	–	–	–	–	–	–	–	–	–	–	–	–	–	–	–	–	–	–	potency (in words) (Mac1): double-digit nanomolar
